Measured values as given in DBAASP.
In brackets after ≈: the same amount, converted by molar mass.

Assays:
Assay in all cases: ≥ marks a high value that may be exact or a test limit, other limits are often not marked, values filed in µg/mL are converted to µM
[1] = tested on: Staphylococcus aureus ATCC 43300
[2] = tested on: Candida albicans ATCC 90028
[3] = tested on: Staphylococcus aureus ATCC 6538
[4] = tested on: Escherichia coli ATCC 8739
[5] = tested on: Bacillus subtilis ATCC 6633
[6] = tested on: Escherichia coli ATCC 25922
[7] = tested on: Escherichia coli DH5alpha
[8] = tested on: Pseudomonas aeruginosa ATCC 27853
Escherichia coli = tested on: Escherichia coli
[9] = tested on: Pseudomonas aeruginosa H188
[10] = tested on: Staphylococcus aureus ATCC 25923
Escherichia coli MG1655 = tested on: Escherichia coli MG1655
[11] = tested on: Pseudomonas aeruginosa PAO1
Candida albicans = tested on: Candida albicans
[12] = tested on: Salmonella enterica subsp. enterica serovar Typhimurium ATCC 14028
[13] = tested on: Acinetobacter baumannii ATCC 19606
[14] = tested on: Klebsiella pneumoniae ATCC 700603
[15] = tested on: Escherichia coli BW25113 ΔsbmA
Escherichia coli BW25113 = tested on: Escherichia coli BW25113
[16] = tested on: Cryptococcus neoformans ATCC 208821

An MIC [1] of 25 µM (≈ 95.9 µg/mL), an MIC [2] of no less than 100 µM and an MIC [3] of 3.1 µM (≈ 11.9 µg/mL) were found for `CC[C@H](C)[C@H](NC(=O)CN)C(=O)N[C@@H](Cc1ccccc1)C(=O)N[C@@H](CO)C(=O)N[C@@H](CC(C)C)C(=O)N[C@H](C(=O)N[C@@H](CCCCN)C(=O)NCC(=O)N[C@@H](C)C(=O)N[C@@H](C)C(=O)N[C@@H](CCCCN)C(=O)N[C@@H](CC(C)C)C(=O)N[C@H](C(=O)N[C@H](C(=O)N[C@@H](CCCCN)C(=O)N[C@H](C(=O)N[C@H](C(=O)N[C@@H](C)C(=O)N[C@@H](CCCCN)C(=O)N[C@@H](CCC(=O)O)C(=O)N[C@@H](C)C(=O)NCC(=O)N[C@@H](CCCCN)C(=O)N[C@H](C(=O)NCC(=O)N[C@@H](CC(C)C)C(=O)N[C@@H](CCC(=O)O)C(=O)N[C@@H](CC(C)C)C(=O)N[C@@H](CCSC)C(=O)N[C@@H](C)C(=O)N[C@H]1CSSC[C@@H](C(=O)O)NC(=O)[C@H](CCC(N)=O)NC(=O)[C@H](CC(N)=O)NC(=O)[C@H]([C@@H](C)O)NC(=O)[C@H](C(C)C)NC(=O)[C@H](CCCCN)NC1=O)[C@@H](C)O)C(C)C)[C@@H](C)O)[C@@H](C)O)[C@@H](C)CC)[C@@H](C)CC` [GIFSLIKGAAKLITKTVAKEAGKTGLELMACKVTNQC] in this work. It also gave an MIC [4] of 12.5 µM (≈ 47.9 µg/mL) and an MIC [5] of 6.3 µM (≈ 24.2 µg/mL).

An MIC [6] of 2.75 µM (≈ 8.11 µg/mL), an MIC [7] of 2.75 µM (≈ 8.11 µg/mL) and an MIC [8] of 11 µM (≈ 32.5 µg/mL) were found for `CC[C@H](C)[C@H](NC(=O)[C@H](C)NC(=O)[C@H](CCCCN)NC(=O)[C@H](CC(C)C)NC(=O)[C@H](C)NC(=O)[C@@H](NC(=O)[C@H](Cc1cnc[nH]1)NC(=O)[C@H](CC(C)C)NC(=O)CNC(=O)[C@@H](NC(=O)[C@H](CCCCN)NC(=O)[C@H](CCCCN)NC(=O)[C@H](C)NC(=O)[C@H](CO)NC(=O)[C@H](CCCCN)NC(=O)[C@H](Cc1ccccc1)NC(=O)[C@@H](NC(=O)[C@H](CCCCN)NC(=O)[C@H](CC(C)C)NC(=O)[C@H](Cc1ccccc1)NC(=O)[C@H](CO)NC(=O)[C@H](CCCCN)NC(=O)[C@H](Cc1c[nH]c2ccccc12)NC(=O)[C@H](CCCCN)NC(C)=O)[C@@H](C)O)[C@@H](C)O)[C@@H](C)O)C(=O)N[C@@H](CO)C(=O)N[C@@H](CO)C(N)=O` [KWKSFLKTFKSAKKTGLHTALKAISS] in this work. It also gave an MIC (Escherichia coli) of 5.5 µM (≈ 16.2 µg/mL) and an MIC [9] of 2.75 µM (≈ 8.11 µg/mL).

An MIC [6] of 0.337 µM (≈ 1.01 µg/mL), an MIC [7] of 1.35 µM (≈ 4.06 µg/mL) and an MIC [8] of 0.675 µM (≈ 2.03 µg/mL) were found for `CC[C@H](C)[C@H](NC(=O)[C@H](C)NC(=O)[C@H](CCCCN)NC(=O)[C@H](CC(C)C)NC(=O)[C@H](C)NC(=O)[C@@H](NC(=O)[C@H](Cc1cnc[nH]1)NC(=O)[C@H](CC(C)C)NC(=O)[C@H](CC(C)C)NC(=O)[C@@H](NC(=O)[C@H](CCCCN)NC(=O)[C@H](CCCCN)NC(=O)[C@H](C)NC(=O)[C@H](CO)NC(=O)[C@H](CCCCN)NC(=O)[C@H](Cc1ccccc1)NC(=O)[C@@H](NC(=O)[C@H](CCCCN)NC(=O)[C@H](CC(C)C)NC(=O)[C@H](Cc1ccccc1)NC(=O)[C@H](CO)NC(=O)[C@H](CCCCN)NC(=O)[C@H](Cc1c[nH]c2ccccc12)NC(=O)[C@H](CCCCN)NC(C)=O)[C@@H](C)O)[C@@H](C)O)[C@@H](C)O)C(=O)N[C@@H](CO)C(=O)N[C@@H](CO)C(N)=O` [KWKSFLKTFKSAKKTLLHTALKAISS] in this work. The MIC (Escherichia coli) was 0.337 µM (≈ 1.01 µg/mL) and the MIC [9] was 0.675 µM (≈ 2.03 µg/mL).

An MIC [4] of 14.6 µM (≈ 32 µg/mL) was found for `CC[C@H](C)[C@H](NC(=O)[C@H](CCCCN)NC(=O)[C@H](CC(=O)O)NC(=O)[C@H](CC(C)C)NC(=O)[C@@H](NC(=O)[C@H](CCCN=C(N)N)NC(=O)[C@H](CC(C)C)NC(=O)[C@H](CC(C)C)NC(=O)[C@H](CC(C)C)NC(=O)[C@H](CCCCN)NC(=O)[C@H](CC(N)=O)NC(=O)[C@@H](NC(=O)[C@H](CCCCN)NC(=O)[C@H](CCCCN)NC(=O)[C@@H]1CCCN1)[C@@H](C)CC)[C@@H](C)CC)C(=O)N[C@@H](C)C(=O)N[C@@H](CO)C(=O)N[C@@H](Cc1ccccc1)C(=O)N[C@@H](CO)C(=O)O` [PKKINKLLLRILDKIASFS] in this work.

An MIC [4] of 30.2 µM (≈ 64 µg/mL) and an MIC [10] of 121 µM (≈ 256 µg/mL) were found for `CC[C@H](C)[C@H](NC(=O)[C@H](C)NC(=O)[C@@H](NC(=O)[C@H](CCCCN)NC(=O)[C@H](CCCCN)NC(=O)[C@H](Cc1cnc[nH]1)NC(=O)[C@@H](NC(=O)[C@H](CCCCN)NC(=O)[C@H](CS)NC(=O)[C@@H](NC(=O)[C@@H](NC(=O)[C@H](CCCN=C(N)N)NC(=O)[C@@H](NC(=O)[C@H](C)NC(=O)[C@H](CC(C)C)NC(=O)[C@H](CCCCN)NC(=O)[C@@H]1CCCN1)[C@@H](C)CC)[C@@H](C)CC)[C@@H](C)O)[C@@H](C)CC)C(C)C)C(=O)N[C@@H](CO)C(=O)N[C@H](C(=O)O)C(C)C` [PKLAIRITCKIHKKVAISV] in this work.

An MIC [4] of no less than 60.7 µM was found for `CC[C@H](C)[C@H](NC(=O)[C@H](CCCCN)NC(=O)[C@H](CCCCN)NC(=O)[C@H](CCCCN)NC(=O)[C@@H](NC(=O)[C@H](CCCN=C(N)N)NC(=O)[C@@H](NC(=O)[C@H](CC(C)C)NC(=O)[C@H](CC(C)C)NC(=O)[C@H](CCCCN)NC(=O)[C@H](CCSC)NC(=O)[C@@H]1CCCN1)C(C)C)C(C)C)C(=O)NCC(=O)N[C@@H](CC(=O)O)C(=O)N[C@@H](C)C(=O)N[C@@H](CC(C)C)C(=O)N[C@@H](CCC(=O)O)C(=O)N[C@@H](CC(C)C)C(=O)NCC(=O)O` [PMKLLVRVKKKIGDALELG] in this work.

An MIC (Escherichia coli MG1655) of no less than 128 µM, an MIC [11] greater than 128 µM and an MIC (Candida albicans) greater than 128 µM were found for `CC(C)C[C@H](NC(=O)[C@@H](NC(=O)[C@H](CCC(=O)O)NC(=O)[C@@H](N)CCCN=C(N)N)C(C)C)C(=O)NCC(=O)N[C@@H](Cc1ccc(O)cc1)C(=O)N[C@@H](CCC(=O)O)C(=O)N[C@@H](CCCN=C(N)N)C(=O)N[C@@H](CC(N)=O)C(=O)N[C@@H](CO)C(=O)N[C@@H](Cc1ccc(O)cc1)C(=O)N[C@@H](CCCCN)C(N)=O` [REVLGYERNSYK] in this work. It also gave an MIC [10] greater than 128 µM.

An MIC [12] of 32 µM (≈ 69.2 µg/mL), an MIC [6] of 16 µM (≈ 34.6 µg/mL) and an MIC [13] of 64 µM (≈ 138 µg/mL) were found for `CC[C@H](C)[C@H](NC(=O)[C@@H]1CCCN1C(=O)[C@@H]1CCCN1C(=O)[C@H](CCCN=C(N)N)NC(=O)[C@H](Cc1ccccc1)NC(=O)[C@@H](N)CCCN=C(N)N)C(=O)N[C@@H](CCCN=C(N)N)C(=O)N[C@@H](CCCN=C(N)N)C(=O)N1CCC[C@H]1C(=O)N1CCC[C@H]1C(=O)N[C@H](C(=O)N[C@@H](CCCN=C(N)N)C(=O)N1CCC[C@H]1C(=O)N1CCC[C@H]1C(=O)N[C@@H](Cc1ccccc1)C(=O)N[C@@H](Cc1ccc(O)cc1)C(=O)N1CCC[C@H]1C(=O)O)[C@@H](C)CC` [RFRPPIRRPPIRPPFYP] in this work. For the same compound, the MIC [14] was greater than 64 µM, the MIC [15] was no less than 64 µM and the MIC [8] was greater than 64 µM. It also gave an MIC (Escherichia coli) of 5.66 µM (≈ 12.2 µg/mL), an MIC (Escherichia coli BW25113) of 11.3 µM (≈ 24.5 µg/mL) and an MIC [10] greater than 64 µM.

An MIC [1] of 18.3 µM (≈ 32 µg/mL), an MIC [6] greater than 18.3 µM and an MIC [16] of 4.59 µM (≈ 8 µg/mL) were found for `NC(=O)CC[C@H](NC(=O)[C@H](Cc1cnc[nH]1)NC(=O)[C@H](CO)NC(=O)[C@H](CCCN=C(N)N)NC(=O)[C@H](Cc1ccccc1)NC(=O)[C@H](Cc1cnc[nH]1)NC(=O)[C@H](CCCN=C(N)N)NC(=O)[C@H](Cc1cnc[nH]1)NC(=O)[C@H](Cc1cnc[nH]1)NC(=O)[C@@H](N)CO)C(=O)N[C@@H](CS)C(=O)N[C@@H](CCCN=C(N)N)C(=O)N[C@@H](CCCN=C(N)N)C(=O)O` [SHHRHFRSHQCRR] in this work. The MIC [13] was greater than 18.3 µM, the MIC [14] was greater than 18.3 µM and the MIC [2] was 18.3 µM (≈ 32 µg/mL). The MIC [8] was greater than 18.3 µM.

An MIC (Escherichia coli MG1655) of no less than 128 µM was found for `CC[C@H](C)[C@H](NC(=O)[C@H](CCCCN)NC(=O)CNC(=O)[C@H](CC(C)C)NC(=O)[C@H](Cc1ccccc1)NC(=O)[C@H](CCC(N)=O)NC(=O)[C@H](Cc1ccccc1)NC(=O)[C@@H](N)C(C)C)C(=O)N[C@H](C(=O)N[C@@H](Cc1cnc[nH]1)C(=O)N[C@@H](Cc1cnc[nH]1)C(=O)N[C@H](C(=O)NCC(=O)N[C@@H](CC(N)=O)C(=O)N[C@@H](Cc1ccccc1)C(=O)N[C@H](C(=O)N[C@@H](C)C(=O)NCC(=O)N[C@@H](Cc1ccccc1)C(=O)N[C@@H](CO)C(=O)N[C@@H](C)C(=O)N[C@H](C(=O)N[C@@H](Cc1ccccc1)C(N)=O)C(C)C)C(C)C)C(C)C)[C@@H](C)CC` [VFQFLGKIIHHVGNFVAGFSAVF] in this work.
